According to ChEMBL document CHEMBL5126519, “Tuberculosis drug discovery: Progression and future interventions in the wake of emerging resistance” (Eur J Med Chem, 2022):
Values after ≈ are worked out from the molar mass of the structure shown.

Columns and labels:
[1] = system: Mycobacterium tuberculosis; experiment: Antimycobacterial activity against Mycobacterium tuberculosis expressing GFP; type: functional
[2] = system: Mycobacterium tuberculosis; experiment: Antimycobacterial activity against Mycobacterium tuberculosis H37Rv by MABA assay; type: functional
[3] = system: Mycobacterium tuberculosis; experiment: Antimycobacterial activity against drug-sensitive Mycobacterium tuberculosis; type: functional
[4] = system: Mycobacterium tuberculosis; experiment: Antimycobacterial activity against Mycobacterium tuberculosis; type: functional
[5] = system: Mycobacterium tuberculosis; experiment: Antimycobacterial activity against Mycobacterium tuberculosis H37Rv by microplate alamar blue assay; type: functional
[6] = system: Mycobacterium tuberculosis; experiment: Antimycobacterial activity against Mycobacterium tuberculosis H37Rv by agar dilution method; type: functional
[7] = system: Mycobacterium tuberculosis; experiment: Antimycobacterial activity against drug-susceptible Mycobacterium tuberculosis H37Rv; type: functional
[8] = system: Mycobacterium tuberculosis; experiment: Antimycobacterial activity against Mycobacterium tuberculosis infected in mouse; type: functional
[9] = Inhibition of mammalian mitochondrial protein synthesis; type: mitochondria, Mitochondria
[10] = system: Mycobacterium tuberculosis; experiment: Antimycobacterial activity against non-replicating Mycobacterium tuberculosis H37Rv by time kill kinetic assay; type: functional

For `COCCNC(=O)c1cn(Cc2ccc(F)cc2)c2ccc([N+](=O)[O-])cc2c1=O`, the MIC [1] was < 0.244 µM.

For `Cc1c(C(=O)OCc2ccccc2)[n+]([O-])c2cc(F)c(-n3cncn3)cc2[n+]1[O-]`, the MIC [2] was ≤ 0.25 µg/mL.

Work on `CCNC(=O)Nc1nc2nc(-c3cnc(C(C)(C)O)nc3)c(F)c([C@H]3CCCO3)c2[nH]1` yielded an MIC [3] of 0.03 µg/mL (≈ 0.0699 µM).

`Cc1cc(/C=C/c2ccc3cc(N(C)C)ccc3[n+]2C)c(C)n1-c1ccccc1.Cc1cc(/C=C/c2ccc3cc(N(C)C)ccc3[n+]2C)c(C)n1-c1ccccc1.O=C(O)c1cc2ccccc2c(Cc2c(O)c(C(=O)O)cc3ccccc23)c1O` gave an MIC99 [3] of 1.55 µg/mL.

Compound `O[C@@H](c1cc(C(F)(F)F)nc2c(C(F)(F)F)cccc12)[C@H]1CCCCN1` [(S,R)-MEFLOQUINE] has an MIC [4] of 10 µM.

For `CC(C)(C)NCC(O)CSc1nc(-c2ccc(C(N)=O)s2)cs1` (stereo not drawn) [AROTINOLOL], the MIC [5] was 3.12 µM (≈ 1.16 µg/mL).

In the case of `COc1nc2ccc(Br)cc2cc1[C@@H](c1ccccc1)[C@@](O)(CCN(C)C)c1cccc2ccccc12` [BEDAQUILINE], the MIC [6] is reported as 0.015 µg/mL (≈ 0.027 µM).

`C[C@H]1COC2(CCN(c3nc(=O)c4cc(C(F)(F)F)cc([N+](=O)[O-])c4s3)CC2)O1` [BTZ-043] showed an MIC [4] of 0.001 µg/mL.

`C[C@]1(COc2ccc(N3CCC(Oc4ccc(OC(F)(F)F)cc4)CC3)cc2)Cn2cc([N+](=O)[O-])nc2O1` [DELAMANID] showed an MIC [7] of 0.0005 µg/mL (≈ 0.000935 µM).

`CC1=NN(c2ccc(C)c(C)c2)C(=O)/C1=N\Nc1cccc(-c2cccc(C(=O)O)c2)c1O` [ELTROMBOPAG] showed an MIC [5] of 6.25 µM (≈ 2.77 µg/mL).

Work on `NC[C@H]1OB(O)c2c(OCCO)ccc(Cl)c21` [GANFEBOROLE] yielded an ED99 [8] of 0.4 mg/kg and an MIC [2] of 0.08 µM.

With `CN(C)[C@@H]1C(O)=C(C(=O)NCNCCCC[C@H](N)C(=O)O)C(=O)[C@@]2(O)C(O)=C3C(=O)c4c(O)cccc4[C@@](C)(O)[C@H]3C[C@@H]12` [LYMECYCLINE] the MIC [4] was 166 µM.

Work on `O=c1nc(N2CCN(CC3CCCCC3)CC2)sc2c([N+](=O)[O-])cc(C(F)(F)F)cc12` [MACOZINONE] yielded an MIC [4] of 0.00019 µg/mL.

`COc1c(N2C[C@@H]3CCCN[C@@H]3C2)c(F)cc2c(=O)c(C(=O)O)cn(C3CC3)c12` [MOXIFLOXACIN] showed an MIC [4] of 1.1 µM.

In the case of `CC(=O)Oc1ccccc1C(=O)Nc1ncc([N+](=O)[O-])s1` [NITAZOXANIDE], the MIC [4] is reported as 33.2 µM.

Compound `O=[N+]([O-])c1cn2c(n1)OC[C@@H](OCc1ccc(OC(F)(F)F)cc1)C2` [PRETOMANID] has an MIC [3] of 0.015 µg/mL (≈ 0.0418 µM).

`CC(C)=CCC/C(C)=C/CNCCNC1C2CC3CC(C2)CC1C3` (stereo not drawn) [SQ109] gave an MIC [4] of 0.78 µg/mL.

`CC(=O)NC[C@H]1CN(c2ccc(N3CCSCC3)c(F)c2)C(=O)O1` [SUTEZOLID] gave an MIC [4] of 0.062 µg/mL.

In the case of `COC(=O)NC[C@H]1CN(c2ccc(N3CC4(COC4)C3)c(F)c2)C(=O)O1` [TBI-223], the IC50 [9] is reported as > 74 µM.

With `CCc1nc2ccc(Cl)cn2c1C(=O)NCc1ccc(N2CCC(c3ccc(OC(F)(F)F)cc3)CC2)cc1` [TELACEBEC] the MIC [4] was 0.008 µg/mL.

Work on `CSc1ccc2c(c1)N(CCC1CCCCN1C)c1ccccc1S2` (stereo not drawn) [THIORIDAZINE] yielded an MIC [4] of 19.6 µM.

In the case of `COc1ccc(CCN(C)CCCC(C#N)(c2ccc(OC)c(OC)c2)C(C)C)cc1OC` (stereo not drawn) [VERAPAMIL], the MIC [10] is reported as 512 µM (≈ 233 µg/mL).
